Assay results reported in DBAASP.
Converted amounts (≈) assume the structure as drawn. One block for each compound: values may come before it.

Columns and labels:
Experiment in all cases: ≥ marks a high value that may be exact or a test limit, other limits are often not marked, values filed in µg/mL are converted to µM
[1] = tested on: Escherichia coli ATCC BAA-3051
[2] = tested on: Enterococcus faecalis ATCC 29212
Escherichia coli D21 = tested on: Escherichia coli D21
[3] = tested on: Escherichia coli ATCC 25922
[4] = tested on: Bacillus subtilis ATCC 6051
[5] = tested on: Salmonella enterica subsp. enterica serovar Typhimurium LT2
Bacillus megaterium Bm11 = tested on: Bacillus megaterium Bm11
[6] = tested on: Staphylococcus aureus ATCC 29213
[7] = tested on: Salmonella typhimurium SL1344
[8] = tested on: Pseudomonas aeruginosa ATCC 27853
[9] = tested on: Micrococcus luteus ATCC 9341
[10] = tested on: Acinetobacter calcoaceticus Ac11
[11] = tested on: Staphylococcus aureus ATCC 33591
Candida glabrata 090902 = tested on: Candida glabrata 090902
Nocardia asteroides = tested on: Nocardia asteroides
[12] = tested on: Staphylococcus aureus ATCC 25923
[13] = tested on: Psychrobacter faecalis X29
[14] = tested on: Enterococcus faecalis 981
Staphylococcus aureus = tested on: Staphylococcus aureus
Escherichia coli W160-37 = tested on: Escherichia coli W160-37

MIC [1]: 13.2 µM (≈ 31.9 µg/mL)
MIC [2]: 3.3 µM (≈ 7.94 µg/mL)
MIC (Escherichia coli D21): ≥ 100 µM
MIC [3]: 13.2 µM (≈ 31.9 µg/mL)
MIC [4]: 20 µM (≈ 48.1 µg/mL)
MIC [5]: ≥ 100 µM
MIC (Bacillus megaterium Bm11): 6.2 µM (≈ 14.9 µg/mL)
MIC [6]: 3.3 µM (≈ 7.94 µg/mL)
MIC [7]: ≥ 52.9 µM
MIC [8]: > 100 µM
MIC [9]: ≥ 100 µM
MIC [10]: ≥ 100 µM
MIC [11]: 3.3 µM (≈ 7.94 µg/mL)
SMILES: CC[C@H](C)[C@H](N=C(O)[C@H](CC(C)C)N=C(O)[C@H](C)N=C(O)[C@H](Cc1ccccc1)N=C(O)[C@H](Cc1ccccc1)N=C(O)CN)C(=O)N1CCC[C@H]1C(O)=N[C@@H](CCCCN)C(O)=N[C@H](C(O)=N[C@H](C(O)=N[C@@H](CO)C(O)=N[C@@H](CO)C(=O)N1CCC[C@H]1C(O)=N[C@@H](CC(C)C)C(O)=N[C@@H](Cc1ccccc1)C(O)=N[C@@H](CCCCN)C(O)=N[C@H](C(O)=N[C@@H](CC(C)C)C(O)=N[C@@H](CC(C)C)C(O)=N[C@@H](CO)C(O)=N[C@@H](C)C(O)=N[C@H](C(O)=NCCN)C(C)C)[C@@H](C)O)[C@@H](C)CC)[C@@H](C)CC [GFFALIPKIISSPLFKTLLSAV]

MIC (Candida glabrata 090902): ≥ 100 µM
MIC (Nocardia asteroides): 12.5 µM (≈ 17 µg/mL)
MIC [12]: 12.5 µM (≈ 17 µg/mL)
MIC [13]: ≥ 200 µM
MIC [14]: 25 µM (≈ 34.1 µg/mL)
SMILES: CC[C@H](C)[C@H](NC(=O)[C@H](CC(C)C)NC(=O)CNC(=O)[C@@H](NC(=O)[C@@H](NC(=O)[C@@H](N)Cc1ccccc1)[C@@H](C)CC)[C@@H](C)O)C(=O)N[C@@H](CO)C(=O)NCC(=O)N[C@@H](CC(C)C)C(=O)N[C@@H](CCSC)C(=O)N[C@@H](CCCCN)C(=O)N[C@@H](C)C(=O)N[C@@H](CC(C)C)C(N)=O [FITGLISGLMKAL]

MIC (Staphylococcus aureus): 14 µM (≈ 20 µg/mL)
MIC (Escherichia coli W160-37): 24 µM (≈ 34.3 µg/mL)
SMILES: CC[C@H](C)[C@H](NC(=O)[C@H](Cc1c[nH]c2ccccc12)NC(=O)[C@H](CCCCN)NC(=O)[C@H](CO)NC(=O)[C@H](CC(C)C)NC(=O)[C@H](Cc1ccccc1)NC(=O)[C@H](CCCCN)NC(=O)[C@H](CC(C)C)NC(=O)[C@H](CC(C)C)NC(=O)[C@H](CCCCN)NC(=O)[C@@H]1CCCN1)C(=O)NCC(=O)O [PKLLKFLSKWIG]
